Results published in US20140371165A1, “Identification of NSC23925 Isomers to Reverse Multidrug Resistance in Human Cancers” (priority 2012, published 2014).
Where a name gives a salt, the structure may show the parent alone.

Tests used:
[1] = test system: H-69AR; assay: MTT reversal of MRP1-mediated MDR in H-69AR; assay type: cell-based, human; conditions: non-Pgp expressing drug resistant cell line
[2] = test system: MCF-7/MX; assay: MTT reversal of BCRP-mediated MDR in MCF-7/MX; assay type: cell-based, human; conditions: non-Pgp expressing drug resistant cell line
From the text: A panel of parental cancer cell line and their daughter resistant cell lines, displaying MDR phenotype were used in this study. Human ovarian cancer cell line SKOV-3, breast cancer cell line MCF-7 and colon cancer cell line SW480, the osteosarcoma cell line U-2OS, KHOS, uterine sarcoma cell line MESSA and its doxorubicin selected drug resistant cell line MESSA/Dx5, non-small cell lung cancer cell line H-69 and its doxorubicin selected drug resistant cell line H-69AR (overexpress MRP1) were obtained from the ATCC (Rockville, Md.). Dr. Efstathios Gonos (Institute of Biological Research & Biotechnology, Athens, Greece) provided the doxorubicin resistant U-2OS R2 (referred in the text below as U-2OSDR), KHOS R2 cell lines. Dr. Erasmus Schneider (Wadsworth Center, Albany) provided the mitoxantrane resistant breast cancer MCF-7/MX (overexpress BCRP) cell line. […]
To evaluate for reversal of Pgp-mediated MDR, SKOV-3TR, MCF-7adr and SW480TR cell lines were seeded into 96-well tissue culture plate at 2,000 cells per well with varying concentrations of chemotherapy drugs and NSC23925b for 6 days. […] Drug cytotoxicity was assessed in vitro using the MTT assay as previously described. Drugs at the concentrations utilized in the MTT assay were performed in the absence of cells to verify no change in absorbance. […]

[3] = test system: MCF-7adr; assay: M30-Apoptosense ELISA apoptosis assay in MCF-7adr; assay type: cell-based, human; conditions: NSC23925b 1 μM with doxorubicin 0.5 μM, 72 hours
Procedure: Apoptosis was evaluated using the M30-Apoptosense ELISA assay kit (Peviva AB, Bromma, Sweden) according to the manufacturer's instructions. For the doxorubicin and NSC23925b treatment, MCF-7adr or SW480TR cells were seeded at 8,000 cells/per well in a 96-well plate for 24 hours before treatment. The cells were then treated with 0.5 μM of doxorubicin, 1 μM of NSC23925b, or a combination of the two drugs for an additional 72 hours. The cells were then lysed by an additional […] of 10% NP40 per well, following the manufacturer's instructions for apoptosis assay.
The effect of NSC23925b on the doxorubicin induction of apoptosis was assessed in MCF-7adr or SW480TR. cell lines. Cells were treated with either doxorubicin (0.5 μM) alone, NSC23925b (1 μM) alone, or a combination of doxorubicin and NSC23925b for 72 hours. Apoptosis was scored using the M30-Apoptosense ELISA assay.

[4] = test system: SKOV-3TR xenograft tumors; assay: SKOV-3TR xenograft tumor growth in nude mice
Procedure: The Crl:SHO-Prkdc^SCIDHr^hr nude female mice at approximately 3-4 weeks of age were purchased from The Charles River Laboratories (Ann Arbor, Mich.). Animal studies were carried out with protocols approved by the Massachusetts General Hospital Subcommittee on Research Animal Care (SRAC). To determine the effect of NSC23925b on paclitaxel sensitivity in xenograft model, 5×10^6 SKOV-3TR cells were injected subcutaneously with matrigel (BD Biosciences, San Jose, Calif.) on day one. Two weeks after injection, the mice were divided into four groups to start the treatments. Group one was received intraperitoneal (i.p) injection with normal saline, group two with paclitaxel (20 mg/kg), group three with NSC23925b (40 mg/kg). […] All four groups were treated twice a week for two weeks. The health of the mice and evidence of tumor growth were examined daily. Tumors were measured twice a week with a digital caliper. Tumor volume (mm^3) was calculated as (W^2×L)/2, where W is width and L is length. The curve of tumor growth was drawn according to tumor volume by using of GraphPad PRISM 4 software.
To further evaluate the effects of NSC23925b and paclitaxel combination therapy on the tumor growth of resistant cells, the growth of xenograft tumors were examined. A well-characterized ovarian cancer MDR cell line SKOV-3TR was chosen for in vivo studies. […] Tumors were measured twice a week with a digital caliper. Tumor volume (mm^3) was calculated as (W^2×L)/2, where W is width and L is length (FIG. 5A). Representative images of dissected tumor tissues from treated nude mice.

COc1ccc(-c2cc([C@H](O)[C@H]3CCCCN3)c3ccccc3n2)cc1 [NSC23925b, (2-(4-methoxyphenyl)quinolin-4-yl)(piperidin-2-yl)methanol hydrochloride]
reversal of MRP1 mediated drug resistance [1]: unable to reverse drug resistance | reversal of BCRP mediated drug resistance [2]: unable to reverse drug resistance | cell death / apoptosis, combination versus either drug alone [3]: significantly greater cell death | reversal of resistance to paclitaxel in xenograft model ([4]; NSC23925b 50 mg/kg with paclitaxel): almost completely reverse resistance to paclitaxel | toxicity on the basis of animal weight and mortality ([4]; NSC23925b administered alone): no significant toxicity | effect on paclitaxel-induced toxicity ([4]; NSC23925b combined with paclitaxel): reducing paclitaxel-induced toxicity in some animals | inhibitory effect on tumor growth, combination versus single agents ([4]; NSC23925b with paclitaxel (20 mg/kg) i.p. twice a week for two weeks): significantly greater inhibitory effect | effect on paclitaxel resistant tumor cell growth, single agent ([4]; alone, i.p. twice a week for two weeks, paclitaxel 20 mg/kg or NSC23925b 40 mg/kg): no significant effects
